The subject of assay [1] is C. perfringens. The assay is classed as cell-based, Clostridium perfringens.
Assay [2] has as its system C. perfringens. It is filed as cell-based, Clostridium perfringens. The source holds these as a separate data set.
Assay [3] relates to C. perfringens strain CP6. The assay is classed as in vivo, Ross x Ross broiler chickens. As to conditions: T3 BMD 55 gm/metric ton in feed, C. perfringens challenge; for Adjusted FCR: adjusted for mortality.
Assay [4] concerns C. perfringens strain CP6. It is filed as in vivo, Ross x Ross broiler chickens. As to conditions: for Adjusted FCR: adjusted for mortality.
The next assay concerns C. perfringens isolates. The assay is classed as cell-based, Clostridium perfringens.
Setting [5] is: Day 0 to 14, T3 BMD 55 gm/metric ton, C. perfringens challenge.
Setting [6] is: Day 0 to 22, T3 BMD 55 gm/metric ton, C. perfringens challenge.
Setting [7] is: Day 0 to 28, T3 BMD 55 gm/metric ton, C. perfringens challenge.
Setting [8] is: T3 BMD 55 gm/metric ton, C. perfringens challenge, DOT 22.

Read-outs that look alike come from different tables or passages of the source.

Data on twelve substances can be found in patent US20240182869A1 (priority 2021, published 2024).

Take Clostridium phage vB_CpeP_VLR28: in the assay on C. perfringens [1], the “Cocktail MOI” value amounted to 0.001 and the “Individual MOI” value is listed as 0.01. Also, the “Virulence Index” value in the assay with C. perfringens [2] is 0.18.
With “Bacitracin methylene disalicylate [Bacitracin Methylene Disalicylate (BMD)]”, the “Feed Intake” value in assay [3] (Day 0 to 14) was 4.87A Kg/Cage; in assay [3] (Day 0 to 22) it was 11.55AB Kg/Cage; in assay [3] (Day 0 to 28), 16.095BC Kg/Cage; in assay [4] (setting [5]), 4.55A Kg/Cage; in assay [4] (setting [6]) it was 10.47A Kg/Cage; in assay [4] (setting [7]), 15.93A Kg/Cage. Moreover, the “Non-Adjusted FCR” value came out at 1.217AB in assay [3] (Day 0 to 14); 1.662BC in assay [3] (Day 0 to 22); 1.867BC in assay [3] (Day 0 to 28); 1.353AB in assay [4] (setting [5]); 1.403AB in assay [4] (setting [6]); 1.483B in assay [4] (setting [7]). Moreover, the “Weight Gain” value in assay [3] (Day 0 to 14) came to 0.430A ^ kg; in assay [3] (Day 0 to 22), 0.861AB kg; in assay [3] (Day 0 to 28), 1.236AB kg; in assay [4] (setting [5]), 0.338A kg; in assay [4] (setting [6]), 0.776A kg; in assay [4] (setting [7]), 1.154A kg. For the same substance, the “Adjusted FCR” value in assay [3] (Day 0 to 14) is reported as 1.186AB; in assay [3] (Day 0 to 22), 1.470AB; in assay [3] (Day 0 to 28), 1.581A; in assay [4] (setting [5]), 1.353AB; in assay [4] (setting [6]), 1.361AB; in assay [4] (setting [7]) it was 1.453A. Besides, the “Overall Mortality” value came out at 24.00AB Percent in assay [3] (Day 0 to 28) and 3.33AB Percent in assay [4] (setting [7]). Besides, the “NE Percent Mortality” value in assay [3] is recorded as 18.00A Percent; in assay [3] (listed as BMD), 18%. Also, the “Lesion Scores Dunn's All-Pairwise Comparisons Test” value in assay [3] (DOT 22) turned out to be 33.00AB; in assay [4] (setting [8]), 13.83A. In addition, the results for the “Lesion Scores Kruskal-Wallis One-Way AOV (Mean Rank)” value in assay [3] (DOT 22) and in assay [4] (setting [8]) were 33.00 and 13.83, respectively. Also, the “Lesion Scores Mean Score (Hofacre, 1998)” value was 0.60AB in assay [3] (DOT 22) and 0.33A in assay [4] (setting [8]). The “FCR to DOT 28 versus challenge control (T2)” value in assay [4] (both doses (T4 & T5) and BMD (T3)) was “significantly better than the challenge control”.
As to Clostridium phage vB_CpeP_ACP22, in the assay on C. perfringens [1], the “Cocktail MOI” value was found to be 0.01 and the “Individual MOI” value came to 0.1. The “Virulence Index” value in the assay on C. perfringens [2] was 0.14.
Consider Clostridium phage vB_CpeM_ACP45, for which, in the assay on C. perfringens [1], the “Cocktail MOI” value was 0.01 and the “Individual MOI” value stood at 0.01. Also, in the assay with C. perfringens [2], the “Virulence Index” value is on record as 0.91.
In the case of Clostridium phage vB_CpeP_MN6171, in the assay with C. perfringens [1], the “Cocktail MOI” value is recorded as 0.01 and the “Individual MOI” value is 0.01. For the same substance, the “Virulence Index” value in the assay with C. perfringens [2] is 0.19.
For the substance Clostridium phage vB_CpeP_ACP8, in the assay on C. perfringens [1], the “Cocktail MOI” value is 0.001 and the “Individual MOI” value was 0.01. The “Virulence Index” value in the assay on C. perfringens [2] was 0.92.
For Clostridium phage vB_CpeP_ACP11, in that order: 0.01, 0.1 and 0.03.
As to Clostridium phage vB_CpeP_ACP10, in the assay on C. perfringens [1], the “Cocktail MOI” value is reported as 0.001 and the “Individual MOI” value came to 0.1. Moreover, the “Virulence Index” value in the assay on C. perfringens [2] is recorded as 0.19.
Consider Clostridium phage vB_CpeP_ACP5, for which, in the assay on C. perfringens [1], the “Cocktail MOI” value is on record as 0.001 and the “Individual MOI” value is reported as 0.01. Moreover, the “Virulence Index” value with C. perfringens [2] came to 0.86.
In the same order, the values of Clostridium phage vB_CpeM_AE3110 are 0.01, 0.1 and 0.24.
For the substance Clostridium phage vB_CpeM_SMS460, in the assay with C. perfringens [1], the “Cocktail MOI” value worked out at 0.001 and the “Individual MOI” value was 0.01. Moreover, in the assay on C. perfringens [2], the “Virulence Index” value is reported as 0.95. Moreover, in the assay on C. perfringens isolates, the “Clostridium perfringens strains capable of being infected or lysed (host range, FIG. 2)” value was “ATCC 13124, Q143.CN7, JBCNJ055, Q100,CN13, Q159.4C, JBFR063, M030.1C, CP_UoA_CA_39, CP_UoA_CA_24, JBCNI056, JBCNC058, JBCNC056 and CP_UoA_CA_132”.
On to Clostridium phage vB_CpeS_RO96, for which, in the assay on C. perfringens [1], the “Cocktail MOI” value was found to be 0.01 and the “Individual MOI” value came to 0.01. Besides, the “Virulence Index” value in the assay on C. perfringens [2] is 0.67.
